Experimental data: patent US20240199608A1 (Eli Lilly and Company, priority 2022, published 2024)

These compounds were tested against T1, Human AhR (Homo sapiens, UniProt P35869) (assay: hAHR Nuclear Translocation Assay). Conditions: AhR-EGFP nuclear translocation in Jump-In T-REx HEK293 cells, 45 minutes incubation; class symbols; read-out: Rel EC50.
T1 construct: expressed in transfected cells
T1 sequence (P35869 11-848): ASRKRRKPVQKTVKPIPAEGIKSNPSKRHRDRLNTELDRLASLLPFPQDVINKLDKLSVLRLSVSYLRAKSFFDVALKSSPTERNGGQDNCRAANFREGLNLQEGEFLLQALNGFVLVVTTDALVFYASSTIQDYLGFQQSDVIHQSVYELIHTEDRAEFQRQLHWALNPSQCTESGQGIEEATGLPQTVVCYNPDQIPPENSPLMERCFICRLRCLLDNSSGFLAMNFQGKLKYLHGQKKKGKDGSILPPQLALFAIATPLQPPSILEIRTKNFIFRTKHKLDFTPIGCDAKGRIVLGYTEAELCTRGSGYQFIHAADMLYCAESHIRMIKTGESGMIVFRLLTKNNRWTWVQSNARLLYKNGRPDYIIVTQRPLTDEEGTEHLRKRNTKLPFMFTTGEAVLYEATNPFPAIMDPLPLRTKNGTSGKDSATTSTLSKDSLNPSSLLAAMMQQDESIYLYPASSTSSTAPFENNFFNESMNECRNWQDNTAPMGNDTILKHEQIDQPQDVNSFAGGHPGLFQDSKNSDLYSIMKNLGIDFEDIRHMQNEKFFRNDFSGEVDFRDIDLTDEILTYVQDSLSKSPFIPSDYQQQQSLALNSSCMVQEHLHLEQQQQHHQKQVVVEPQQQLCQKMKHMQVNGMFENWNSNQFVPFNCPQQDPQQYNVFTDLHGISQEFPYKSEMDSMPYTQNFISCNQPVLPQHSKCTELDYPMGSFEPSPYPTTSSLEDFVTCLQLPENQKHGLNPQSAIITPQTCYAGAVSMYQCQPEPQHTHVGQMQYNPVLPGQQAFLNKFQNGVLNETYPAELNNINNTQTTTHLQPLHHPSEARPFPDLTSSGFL
Format: cell-based
How it was run: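 Doxycycline-induced HEK293 cells stably expressing AhR-EGFP, exposed 45 min at 37° C to a 20-point 1:2 compound series in DMEM/0.1% BSA (0.2% DMSO final), then MeOH-fixed. High-content imaging of nuclear/cytosolic EGFP ratio, fitted by 4-parameter logistic for agonist potency.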
Compound `COc1cnc(NC(=O)c2cc3c(n4cnnc24)CCC3C)nc1` (single isomer, unassigned) [Example 49, N-(5-Methoxypyrimidin-2-yl)-6-methyl-7,8-dihydro-6H-cyclopenta[e][1,2,4] triazolo[4,3-a]pyridine-4-carboxamide] has an EC50 of 10 to 50 nM. In the case of `CC(C)OC1CCc2c1cc(C(=O)Nc1ncc(F)cn1)c1nncn21` (single isomer, unassigned) [Example 50, N-(5-Fluoropyrimidin-2-yl)-6-isopropoxy-7,8-dihydro-6H-cyclopenta[e][1,2,4] triazolo[4,3-a]pyridine-4-carboxamide], the EC50 is reported as over 50 nM. Compound `O=C(Nc1ncc(F)cn1)c1cc2c(n3cnnc13)CCC2C1CCC1` (single isomer, unassigned) [Example 64, 6-Cyclobutyl-N-(5-fluoropyrimidin-2-yl)-7,8-dihydro-6H-cyclopenta[e][1,2,4] triazolo[4,3-a]pyridine-4-carboxamide] has an EC50 of 1 to 10 nM. `COc1ccccc1NC(=O)c1cc2c(n3cnnc13)CCC2C` (single isomer, unassigned) [Example 21, N-(2-methoxyphenyl)-6-methyl-7,8-dihydro-6H-cyclopenta[e][1,2,4] triazolo[4,3-a]pyridine-4-carboxamide] gave an EC50 of over 50 nM. For `CC1CCc2c1cc(C(=O)Nc1ccon1)c1nncn21` (single isomer, unassigned) [Example 33], the EC50 was over 50 nM. For `CC1CCc2c1cc(C(=O)Nc1ccccn1)c1nncn21` (single isomer, unassigned) [Example 4], the EC50 was over 50 nM. With `CC1CCc2c1cc(C(=O)Nc1ncco1)c1nncn21` (single isomer, unassigned) [Example 30, 6-Methyl-N-(oxazol-2-yl)-7,8-dihydro-6H-cyclopenta[e][1,2,4] triazolo[4,3-a]pyridine-4-carboxamide] the EC50 was 10 to 50 nM.

Same assay, conditions: AhR-EGFP nuclear translocation in Jump-In T-REx HEK293 cells, 45 minutes incubation; numeric values; read-out: Rel EC50
Work on `C[C@@H]1CCc2c1cc(C(=O)Nc1ncc(F)cn1)c1nncn21` [Example 6, (R)-N-(5-Fluoropyrimidin-2-yl)-6-methyl-7,8-dihydro-6H-cyclopenta[e][1,2,4]triazolo [4,3-a]pyridine-4-carboxamide] yielded an EC50 of 5.74 nM.
